ChEMBL document CHEMBL5230117, “Chalcones: Unearthing their therapeutic possibility as monoamine oxidase B inhibitors” (Eur J Med Chem, 2020)
Each block holds one molecule with its values, some of them ahead of it.

Assays:
[1] = target: T1, Amine oxidase [flavin-containing] B (Homo sapiens, UniProt P27338); experiment: Inhibition of human MAO-B using p-tyramine as substrate by fluorimetric based assay
T1 sequence (P27338 whole entry): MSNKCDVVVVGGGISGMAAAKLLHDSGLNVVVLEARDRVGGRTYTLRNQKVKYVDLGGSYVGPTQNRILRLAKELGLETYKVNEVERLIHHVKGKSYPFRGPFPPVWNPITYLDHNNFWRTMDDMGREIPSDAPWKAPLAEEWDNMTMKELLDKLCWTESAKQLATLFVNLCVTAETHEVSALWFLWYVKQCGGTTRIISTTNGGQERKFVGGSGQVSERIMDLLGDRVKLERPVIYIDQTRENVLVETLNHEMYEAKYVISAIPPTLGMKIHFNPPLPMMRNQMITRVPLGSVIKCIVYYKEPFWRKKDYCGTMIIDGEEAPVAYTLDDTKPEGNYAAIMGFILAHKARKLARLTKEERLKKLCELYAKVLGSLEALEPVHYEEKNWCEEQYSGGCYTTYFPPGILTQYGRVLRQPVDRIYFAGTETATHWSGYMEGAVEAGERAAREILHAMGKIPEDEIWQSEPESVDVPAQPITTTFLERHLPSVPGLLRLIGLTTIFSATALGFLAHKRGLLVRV

[2] = target: T2, Amine oxidase [flavin-containing] A (Homo sapiens, UniProt P21397); experiment: Inhibition of human MAO-A using kynuramine as substrate incubated for 10 mins by continuous spectrophotometric method
T2 sequence (P21397 whole entry): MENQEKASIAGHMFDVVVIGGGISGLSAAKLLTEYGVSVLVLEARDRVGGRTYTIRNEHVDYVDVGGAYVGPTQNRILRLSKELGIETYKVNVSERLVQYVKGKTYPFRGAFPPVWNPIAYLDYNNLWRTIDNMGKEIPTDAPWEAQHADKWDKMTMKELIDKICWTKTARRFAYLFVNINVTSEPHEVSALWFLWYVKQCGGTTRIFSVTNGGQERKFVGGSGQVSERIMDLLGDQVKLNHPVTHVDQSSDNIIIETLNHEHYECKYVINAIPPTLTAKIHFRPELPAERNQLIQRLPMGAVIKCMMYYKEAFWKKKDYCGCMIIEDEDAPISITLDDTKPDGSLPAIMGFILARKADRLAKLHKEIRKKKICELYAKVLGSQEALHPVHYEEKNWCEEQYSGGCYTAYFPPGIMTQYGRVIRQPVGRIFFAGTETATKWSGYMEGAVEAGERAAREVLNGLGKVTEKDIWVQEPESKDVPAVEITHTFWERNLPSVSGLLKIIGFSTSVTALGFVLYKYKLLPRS

Homo sapiens [3] = organism: Homo sapiens; experiment: Selectivity index, ratio of IC50 for human MAO-A to IC50 for human MAO-B
[4] = target: T1, Amine oxidase [flavin-containing] B; experiment: Inhibition of human MAO-B using benzylamine as substrate
[5] = target: T1, Amine oxidase [flavin-containing] B; experiment: Inhibition of human MAO-B using kynuramine as substrate incubated for 20 mins by fluorescence based assay relative to control
Homo sapiens [6] = organism: Homo sapiens; experiment: Selectivity index, ratio of IC50 for human MAO-A to IC50 for human MAO-B by fluorescence based assay
[7] = target: T2, Amine oxidase [flavin-containing] A; experiment: Inhibition of human MAO-A using kynuramine as substrate incubated for 20 mins by fluorescence based assay relative to control
[8] = target: T1, Amine oxidase [flavin-containing] B; experiment: Binding affinity to human MAO-B using p-tyramine as substrate incubated for 15 mins by amplex red dye based microplate assay
[9] = target: T1, Amine oxidase [flavin-containing] B; experiment: Inhibition of human MAO-B using kynuramine as substrate incubated for 30 mins by fluorescence based assay; settings: 0.5 h
[10] = target: T1, Amine oxidase [flavin-containing] B; experiment: Binding affinity to human MAO-B using kynuramine as substrate incubated for 30 mins by absorbance based assay

IC50 [1]: 2600 nM
SMILES: COc1cc2c(Nc3ccc(C(=O)/C=C/c4nc(C)c(C)nc4C)cc3)ncnc2c(OC)c1OC

IC50 [2]: > 10000 nM
Ratio IC50 (Homo sapiens [3]): > 120
IC50 [4]: 86 nM
SMILES: CC/C(C)=N/Oc1ccc(C(=O)/C=C/c2ccccc2)cc1

IC50 [5]: 13200 nM
Ratio IC50 (Homo sapiens [6]): > 3.03
IC50 [7]: > 40000 nM
SMILES: CC(C)=CCC/C(C)=C/Cc1c(O)ccc(C(=O)/C=C/c2ccc(O)cc2)c1O [XANTHOANGELOL]

Ratio IC50 (Homo sapiens [3]): 172
Ki [8]: 4.1 nM
SMILES: O=C(/C=C/C=C/c1ccccc1)c1ccco1

inhibition (INH) [9]: < 75%
SMILES: COc1ccc(/C=C/C(=O)c2ccc(Cl)cc2)cc1

Ratio IC50 (Homo sapiens [3]): 12.6
Ki [8]: 72 nM
SMILES: O=C(/C=C/c1csc2ccccc12)c1ccco1

Ki [10]: 3550 nM
SMILES: O=C(/C=C/c1ccc(O)c(O)c1O)c1ccco1

IC50 [5]: 7020 nM
Ratio IC50 (Homo sapiens [6]): 0.1
IC50 [7]: 720 nM
SMILES: CC(C)=CCc1cc(C(=O)/C=C/c2ccc(O)c(O)c2)c(O)cc1O [BROUSSOCHALCONE A]

Ratio IC50 (Homo sapiens [3]): 120
Ki [8]: 10 nM
SMILES: O=C(/C=C/c1ccc(Br)cc1)c1c[nH]c2ccccc12

IC50 [5]: 1390 nM
Ratio IC50 (Homo sapiens [6]): > 28.8
IC50 [7]: > 40000 nM
SMILES: COc1ccc(C(=O)/C=C/c2ccc(O)cc2)c(O)c1CC=C(C)C

Ki [10]: 850 nM
SMILES: O=C(/C=C/c1ccc(Cl)cc1Cl)c1ccco1

inhibition (INH) [9]: < 75%
SMILES: COc1ccc(C(=O)/C=C/c2ccc(N(C)C)cc2)cc1

Ki [10]: 300 nM
SMILES: COC(=O)c1ccc(/C=C/C(=O)c2ccco2)cc1
